Counter-ions that a name gives are not always drawn.
Row | melting point [°C] | SMILES
1 | 239 | C=CCO[C@@H](C)CN1CC[C@@]2(C)c3cccc(O)c3C[C@@H]1C2(C)C (as salt: hydrochloride)
2 | 205 | C/C=C/CO[C@@H](C)CN1CC[C@@]2(C)c3cccc(O)c3C[C@@H]1C2(C)C (as salt: hydrochloride)
3 | 240 | C=C(C)CO[C@@H](C)CN1CC[C@@]2(C)c3cccc(O)c3C[C@@H]1C2(C)C (as salt: hydrochloride)

Source: patent US6683089B2, “N-allyoxyethyl-1,2,3,4,5,6-hexahydro-2,6-methano-3-benzazocine-10-ols” (Boehringer Ingelheim Pharma GmbH & Co. KG, priority 2002, dated 2004)
